Measurements reported in patent US20060165823A1, “Topical delivery agents and methods for making and using therm” (priority 2003, published 2006).

Test system: hair follicles and sebaceous glands of the dorsal skin
Assay: Delivery of Nile Red fluorescent dye into hair follicles and sebaceous glands by delivery agents
Design: species or system Sprague Dawley rat; Fluorescence intensity: key to the marks not given beside the values
Conditions: rat, in vivo
Description: Mixtures of Nile Red fluorescent dye, were from Sigma Chemical Co., St. […] All mixtures were filtered through a 0.2 micron Millipore filter, available from Millipore Corp., Bedford, Mass., to remove any undissolved Nile Red dye. […] Before the application of formulations, the hair of the rats was gently clipped with an electric clipper on their dorsal areas. […] The amount of Nile Red delivered is evidenced by the intensity of the orange-red fluorescence depicted in the photomicrographs. […] Orange-red fluorescence due to Nile Red dye on the skin surface (stratum corneum) was not evaluated.

| Compound | Fluorescence intensity | Penetration of the skin and distribution in the pilosebaceous unit |
| --- | --- | --- |
| C[S+](C)[O-] [DMSO, Dimethyl Sulfoxide, reference compound] | +++ | – |
| Jojoba Oil | ++++ | can penetrate the skin through the opening of the hair follicle and distribute itself throughout the hair shaft and sebaceous gland |
